The values below come from patent US20240317714A1, “3-[(1H-PYRAZOL-R-YL)OXY]PYRAZIN-2-AMINE COMPOUNDS AS HPK1 INHIBITOR AND USE THEREOF” (BeiGene, Ltd., priority 2020, published 2024).

Experiment [1] deals with pSLP76(S376) level in Jurkat cell line. Put plainly: Cellular pSLP76(S376) HTRF Assay. Type of experiment: cell-based. As to conditions: Homo sapiens, Jurkat, Jurkat cells, 2 h compound treatment, stimulated with 0.05 μg/mL anti-human CD3 (OKT3) for 30 min. On the technique in general: TR-FRET usually uses a lanthanide donor and a delayed reading to cut background.
The target of experiment [2] is HPK1 kinase (aal-346. Life Technologies) (Homo sapiens (Human), UniProt Q92918). Put plainly: HPK Kinase Activity Assay at 1 mM ATP (TR-FRET). Type of experiment: biochemical. As to conditions: HPK1 kinase 40 nM, 0.5 μM STK1 substrate, read-out: Enzymatic activity IC50.

Each structure is given as a SMILES string.

HPK1 kinase (aal-346. Life Technologies), sequence (Q92918 1-346): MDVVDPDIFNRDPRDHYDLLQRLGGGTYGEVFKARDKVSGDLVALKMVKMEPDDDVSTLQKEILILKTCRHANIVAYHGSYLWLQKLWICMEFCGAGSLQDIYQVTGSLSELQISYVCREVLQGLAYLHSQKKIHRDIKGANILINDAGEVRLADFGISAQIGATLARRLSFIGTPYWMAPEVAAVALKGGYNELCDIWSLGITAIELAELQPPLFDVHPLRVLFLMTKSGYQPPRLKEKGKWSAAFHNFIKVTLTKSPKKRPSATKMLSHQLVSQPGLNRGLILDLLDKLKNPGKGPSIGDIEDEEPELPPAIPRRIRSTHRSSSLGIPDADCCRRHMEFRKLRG

For orientation: IC50 means the concentration that inhibits the measured activity by half. With `Cc1cc(-c2cnc(N)c(Oc3cnn(C4CCN(C)CC4)c3)n2)cc(C)c1CNC(=O)c1ccccc1` [Example A44, N-(4-(5-amino-6-((1-(1-methylpiperidin-4-yl)-1H-pyrazol-4-yl)oxy)pyrazin-2-yl)-2,6-dimethylbenzyl)benzamide], the IC50 in experiment [1] turned out to be 61 nM; in experiment [2] it was 9 nM.
The corresponding values for `CC(=O)NCc1c(C)cc(-c2cnc(N)c(Oc3cnn(C4CCN(C)CC4)c3)n2)cc1C` [Example A45, N-(4-(5-amino-6-((1-(1-methylpiperidin-4-yl)-1H-pyrazol-4-yl)oxy)pyrazin-2-yl)-2,6-dimethylbenzyl)acetamide] are 119 nM and 51 nM.
Regarding `Cc1cc(-c2cnc(N)c(Oc3cnn(C4CCN(C)CC4)c3)n2)ccc1CNS(C)(=O)=O` [Example A46, N-(4-(5-amino-6-((1-(1-methylpiperidin-4-yl)-1H-pyrazol-4-yl)oxy)pyrazin-2-yl)-2-methylbenzyl)methanesulfonamide], the half-maximal inhibitory concentration (IC50) in experiment [1] was determined as 98 nM; in experiment [2] it was 51 nM.
The corresponding values for `CNC(=O)NCc1ccc(-c2cnc(N)c(Oc3cnn(C4CCN(C)CC4)c3)n2)cc1C` [Example A47, 1-(4-(5-amino-6-((1-(1-methylpiperidin-4-yl)-1H-pyrazol-4-yl)oxy)pyrazin-2-yl)-2-methylbenzyl)-3-methylurea] are 183 nM and 68 nM.
For `Cc1cc(-c2cnc(N)c(Oc3cnn(C4CCN(C)CC4)c3)n2)cc(C)c1CNCC(F)(F)F` [Example A48, 5-(3,5-dimethyl-4-(((2,2,2-trifluoroethyl)amino)methyl)phenyl)-3-((1-(1-methylpiperidin-4-yl)-1H-pyrazol-4-yl)oxy)pyrazin-2-amine], in that order: 183 nM and 50 nM.
The corresponding values for `CNS(=O)(=O)c1cc(-c2cnc(N)c(Oc3cnn(C4CCN(C)CC4)c3)n2)cc(N2CCOC[C@H]2C)c1` [Example A49, (R)-3-(5-amino-6-((1-(1-methylpiperidin-4-yl)-1H-pyrazol-4-yl)oxy)pyrazin-2-yl)-N-methyl-5-(3-methylmorpholino)benzenesulfonamide] are 82 nM and 11 nM.
Consider `Cc1cc(-c2cnc(N)c(Oc3cnn(C4CCN(C)CC4)c3)n2)cc([Si](C)(C)O)c1` [Example A50, (3-(5-amino-6-((1-(1-methylpiperidin-4-yl)-1H-pyrazol-4-yl)oxy)pyrazin-2-yl)-5-methylphenyl)dimethylsilanol], for which the concentration for half-maximal inhibition (IC50) in experiment [1] was 95 nM; in experiment [2], 18 nM.
The corresponding values for `Cc1cc(-c2cnc(N)c(Oc3cnn(C4CCN(C)CC4)c3)n2)cc(C)c1CNC(=O)NCC(F)(F)F` [Example A51, 1-(4-(5-amino-6-((1-(1-methylpiperidin-4-yl)-1H-pyrazol-4-yl)oxy)pyrazin-2-yl)-2,6-dimethylbenzyl)-3-(2,2,2-trifluoroethyl)urea] are 101 nM and 46 nM.
For `Cc1cc(-c2cnc(N)c(Oc3cnn(C4CCN(C)CC4)c3)n2)cc(C(C)(C)O)c1` [Example A52, 2-(3-(5-amino-6-((1-(1-methylpiperidin-4-yl)-1H-pyrazol-4-yl)oxy)pyrazin-2-yl)-5-methylphenyl)propan-2-ol], in that order: 118 nM and 70 nM.
The corresponding values for `Cc1cc(-c2cnc(N)c(Oc3cnn(C4CCN(C)CC4)c3)n2)cc(C)c1CNC(=O)NC(C)(C)C` [Example A53, 1-(4-(5-amino-6-((1-(1-methylpiperidin-4-yl)-1H-pyrazol-4-yl)oxy)pyrazin-2-yl)-2,6-dimethylbenzyl)-3-(tert-butyl)urea] are 63 nM and 16 nM.
As to `Cc1cc(-c2cnc(N)c(Oc3cnn(C4CCN(C)CC4)c3)n2)cc(C2(O)COC2)c1` [Example A54, 3-(3-(5-amino-6-((1-(1-methylpiperidin-4-yl)-1H-pyrazol-4-yl)oxy)pyrazin-2-yl)-5-methylphenyl)oxetan-3-ol], the half-inhibitory concentration (IC50) was 33 nM in experiment [1] and 10 nM in experiment [2].
For `Cc1cc(-c2cnc(N)c(Oc3cnn(C4CCN(C)CC4)c3)n2)cc(C)c1CNC1COC1` [Example A55, 5-(3,5-dimethyl-4-((oxetan-3-ylamino)methyl)phenyl)-3-((1-(1-methylpiperidin-4-yl)-1H-pyrazol-4-yl)oxy)pyrazin-2-amine], in that order: 111 nM and 34 nM.
The corresponding values for `Cc1cc(-c2cnc(N)c(Oc3cnn(C4CCN(C)CC4)c3)n2)cc(C)c1CNc1ccn(C)n1` [Example A56, 5-(3,5-dimethyl-4-(((1-methyl-1H-pyrazol-3-yl)amino)methyl)phenyl)-3-((1-(1-methylpiperidin-4-yl)-1H-pyrazol-4-yl)oxy)pyrazin-2-amine] are 85 nM and 53 nM.
For `Cc1cc(-c2cnc(N)c(Oc3cnn(C4CCN(C)CC4)c3)n2)cc(C)c1CNc1cnn(C)c1` [Example A57, 5-(3,5-dimethyl-4-(((1-methyl-1H-pyrazol-4-yl)amino)methyl)phenyl)-3-((1-(1-methylpiperidin-4-yl)-1H-pyrazol-4-yl)oxy)pyrazin-2-amine], the concentration for half-maximal inhibition (IC50) was 76 nM in experiment [1] and 24 nM in experiment [2].
The corresponding values for `Cc1cc(-c2cnc(N)c(Oc3cnn(C4CCN(C)CC4)c3)n2)cc(C2(O)CCOCC2)c1` [Example A58, 4-(3-(5-amino-6-((1-(1-methylpiperidin-4-yl)-1H-pyrazol-4-yl)oxy)pyrazin-2-yl)-5-methylphenyl)tetrahydro-2H-pyran-4-ol] are 69 nM and 29 nM.
Take `C[C@@H]1COCCN1c1cc(-c2cnc(N)c(Oc3cnn(C4CCN(C)CC4)c3)n2)cc(C2(O)COC2)c1` [Example A59, (R)-3-(3-(5-amino-6-((1-(1-methylpiperidin-4-yl)-1H-pyrazol-4-yl)oxy)pyrazin-2-yl)-5-(3-methylmorpholino)phenyl)oxetan-3-ol]: the IC50 in experiment [1] turned out to be 51 nM; in experiment [2], 8.2 nM.
The corresponding values for `Cc1cc(-c2cnc(N)c(Oc3cnn(C4CCN(C)CC4)c3)n2)cc(C)c1CNC1(C)COC1` [Example A60, 5-(3,5-dimethyl-4-(((3-methyloxetan-3-yl)amino)methyl)phenyl)-3-((1-(1-methylpiperidin-4-yl)-1H-pyrazol-4-yl)oxy)pyrazin-2-amine] are 91 nM and 40 nM.
Consider `Cc1cc(-c2cnc(N)c(Oc3cnn(C4CCN(C)CC4)c3)n2)cc([C@@H]2CCC(=O)N2)c1` [Example A61B, (S)-5-(3-(5-amino-6-((1-(1-methylpiperidin-4-yl)-1H-pyrazol-4-yl)oxy)pyrazin-2-yl)-5-methylphenyl)pyrrolidin-2-one], for which the IC50 in experiment [1] was determined as 44 nM; in experiment [2] it was 10 nM.
With `Cc1cc(-c2cnc(N)c(Oc3cnn(C4CCN(C)CC4)c3)n2)cc(C)c1CNS(=O)(=O)N(C)C` [Example A62, 5-(4-[[(dimethylsulfamoyl)amino]methyl]-3,5-dimethylphenyl)-3-[[1-(1-methylpiperidin-4-yl)pyrazol-4-yl]oxy]pyrazin-2-amine], the values for the IC50 in experiment [1] and in experiment [2] were 79 nM and 48 nM, respectively.
For `Cc1cc(-c2cnc(N)c(Oc3cnn(C4CCN(C)CC4)c3)n2)cc(C)c1C1(O)COC1` [Example A63, 3-(4-(5-amino-6-((1-(1-methylpiperidin-4-yl)-1H-pyrazol-4-yl)oxy)pyrazin-2-yl)-2,6-dimethylphenyl)oxetan-3-ol], in that order: 102 nM and 39 nM.
